Assay results taken from ChEMBL document CHEMBL1155612, “Lyngbyabellin B, a toxic and antifungal secondary metabolite from the marine cyanobacterium Lyngbya majuscula” (J Nat Prod, 2000).
Calls of active or inactive are those of the source. No cut-off for these calls is given here.

How the values were obtained:
Bacillus subtilis = test: Antimicrobial activity against Bacillus subtilis ATCC 6051 by disk agar plate assay; type: functional, organism-based
Candida albicans [1] = test: Antimicrobial activity against Candida albicans ATCC 14053 at 10 ug/disk by disk agar plate assay; type: functional, organism-based
Candida albicans [2] = test: Antimicrobial activity against Candida albicans ATCC 14053 at 100 ug/disk by disk agar plate assay; type: functional; settings: read-out: IZ
[3] = test system: Salmonella enterica subsp. enterica; test: Antimicrobial activity against Salmonella choleraesuis subsp. choleraesuis ATCC 14028 by disk agar plate assay; type: functional, organism-based
Pseudomonas aeruginosa = test: Antimicrobial activity against Pseudomonas aeruginosa ATCC 10145 by disk agar plate assay; type: functional, organism-based
Escherichia coli = test: Antimicrobial activity against Escherichia coli ATCC 11775 by disk agar plate assay; type: functional, organism-based
Artemia = test: Toxicity against brine shrimp after 24 hrs; type: organism-based; settings: in vivo
Staphylococcus aureus = test: Antimicrobial activity against Staphylococcus aureus ATCC 12600 by disk agar plate assay; type: functional, organism-based

SMILES: CC(C)[C@@H]1NC(=O)CNC(=O)[C@@H]2CSC(=N2)[C@H](C(C)(C)O)OC(=O)C(C)(C)[C@H](CCCC(C)(Cl)Cl)OC(=O)c2csc1n2 [LYNGBYABELLIN B]
- Activity (Bacillus subtilis): inactive
- Activity (Candida albicans [1]): Active
- zone of inhibition at 100 µg/disc (Candida albicans [2]): 10.5 mm
- Activity [3]: inactive
- Activity (Pseudomonas aeruginosa): inactive
- Activity (Escherichia coli): inactive
- LD50 (Artemia): 3 ppm
- Activity (Staphylococcus aureus): inactive
